In patent publication US9000027B2, “Chk1 suppresses a caspase-2 apoptotic response to DNA damage that bypasses p53, bcl-2 and caspase-3” (Dana-Farber Cancer Institute, Inc., priority 2008, dated 2015):
Entries after “also recorded” stand apart in the source; their conditions may differ.

Columns and labels:
human cancer cell lines = experiment: Annexin V (+)/PI (-) apoptosis assay in human cancer cell lines; format: cell-based
Procedure: For the Annexin V assay, 2.0×10^5 cells treated with IR (0 or 10 Gy) and/or Gö6976 (0 or 1 μM) for 48 h were washed with cold-PBS and resuspended in staining buffer containing propidium iodide (PI) and fluorescein isothiocynate (FITC)-conjugated anti-AnnexinV antibody (MEBCYTO apoptosis kit, MBL international, MA). After 30 min incubation at room temperature, cells were analyzed by flow cytometry (FACScaliber, BD Bioscience, San Jose, Calif.) and CellQuest analysis program (BD Bioscience). The cells in PI-negative and AnnexinV-positive fraction were evaluated as apoptosis. Data were collected from two independent experiments in which each condition (shRNA, presence or absence of Gö6976) was analyzed in triplicate.

p53^+/+ embryos = experiment: Drug toxicity: AO reactivity and development of inhibitor-treated, non-irradiated p53+/+ embryos; format: in vivo, zebrafish; details: 0 Gy
From the text: Chk1 inhibitors hold considerable promise in cancer therapy, as they are expected to synergize with genotoxic agents to kill tumor cells lacking functional p53, without affecting normal cells (Kawabe, 2004; Zhou and Bartek, 2004). […] Gö6976 has not been tested in vivo in a vertebrate model system. We therefore evaluated it as well as specific Chk2 and ATM inhibitors in the zebrafish system. Drug toxicity was monitored by scoring the AO reactivity of inhibitor-treated, but non-irradiated, p53^+/+ embryos (left column in FIG. 8A). Unless otherwise indicated, the inhibitors were applied at 18 hpf (that is, immediately before IR) for a total of 6 hours.
(§1) Immediately before IR, 18-hpf embryos were dechorionated and transferred to fresh egg water containing 1% DMSO, with or without the following inhibitors at indicated final concentrations: KU55933 (10 μM; Sigma) (Hickson et al., 2004); Chk2 Inhibitor II (10 μM; Calbiochem) (Arienti et al., 2005); Gö6976 (1 μM; Calbiochem) (Kohn et al., 2003). Unless stated otherwise, embryos were exposed to the inhibitors for 6 hr, transferred to fresh egg water, rinsed five times for 5 min, and labeled with AO. For experiments with Tg(rag2:EGFP-bcl-2) larvae, larvae were incubated in the inhibitor solution at 4 dpf, irradiated at 5 dpf, rinsed at 6 dpf, incubated in fresh inhibitor for an additional 72 hr, and mounted live at 9 dpf for fluorescence microscopic analysis of EGFP expression.

MK-2 = MK-2 (Homo sapiens, UniProt P49137); experiment: Western blot of MK-2 activity (Hsp-27 Ser82 phosphorylation) in irradiated HeLa cells; format: cell-based; set-up: endogenous in cells; host or cells: HeLa
Procedure: (§2) Protein extract (5-60 μg) was added to 4× gel loading buffer and 10× denaturing solution (Invitrogen) in appropriate proportions, and samples were incubated at 70° C. for 10 min. Samples were run at 200V for 1 hr on a 4-12% Bis-tris gradient gel (Invitrogen). After electrophoresis, samples were transferred for 1.5 hr (350 mA) to a Nitrocellulose membrane (Millipore) using a submerged transfer apparatus (Bio-Rad). Membranes were then blocked with 5% milk in Tris-buffered saline with 0.1% tween (TBST) and probed overnight at 4° C. with the following antibodies: anti-zebrafish Chk1 (diluted 1:200), anti-zebrafish Chk2 (1:200), anti-P-Cdc2 (1:1000), anti-actin (1:2000), anti-human ATR (1:500) and Stressgen anti-human-caspase-3 (1:500) for zebrafish immunoblots; and anti-caspase-2 (1:200), Upstate anti-caspase-3 (1:500), anti-P-ATM (1:500), anti-ATM (1:500), Santa Cruz anti-human Chk1 (1:1000), Santa Cruz anti-human Chk2 (1:1000), anti-P-Chk1 (1:500), anti-P-Chk2 (1:500), anti-P-H2A.X (1:2000), anti-P-cdc25C (1:1000), anti-P-HSP27 (1:1000), anti-HSP27 (1:1000), anti-P-Cdc2 (1:1000), anti-p53 (1:1000) and anti-GAPDH (1:5000) for immunoblots of human tumor cell lysates. Detailed references for all primary antibodies can be found in the ‘Antibodies’ section elsewhere herein.

caspase-2 = experiment: Western blot of caspase-2 cleavage in human cancer cells; format: cell-based
Procedure: as §2

[1] = system: Tg(rag2:EGFP-bcl-2) larvae; experiment: T-cell radioresistance in Tg(rag2:EGFP-bcl-2) larvae; format: in vivo, zebrafish
From the text: To test this notion in vivo, we exploited a zebrafish transgenic line expressing a stable EGFP-bcl-2 fusion transgene under control of the rag2 promoter (Langenau et al., 2005). Such Tg(rag2: EGFP-bcl-2) larvae are characterized by highly radioresistant T- and B-cells at 9 dpf. […] Together with our human cell culture studies, our in vivo analysis of Gö6976 in zebrafish raises the remarkable possibility that tumors disrupting p53 or its attendant downstream pathway—in other words, most human cancers—will respond favorably to Chk1 inhibitors.
as §1

HeLa cells = experiment: Clonogenic survival assay after IR; format: cell-based, human; details: Gö6976 500 nM from 24 hbIR
Procedure: Clonogenic assays were performed as described (Franken et al., 2006). Briefly, the cells were plated in 6-cm dishes, treated with Gö6976 followed by IR and cultured for 2 weeks. The medium was then removed, and the cells were rinsed by PBS and incubated with a mixture of 6.0% glutaraldehyde and 0.5% crystal violet (Sigma-Aldrich, St Louis, Mo., USA) for 30 min at room temperature. The dishes were washed with water, and colonies consisting of at least 50 cells were counted.

ATR = experiment: Western blot of ATR activity (Chk1 phosphorylation at Ser317) in HeLa cells; format: cell-based, human; details: 10 Gy IR+Gö6976 1 μM
Procedure: as §2

caspase-3 = experiment: Western blot of cleaved caspase-3 in HeLa cells; format: cell-based, human; details: 10 Gy, 24 hpIR, Gö6976 1 μM
Procedure: as §2

[2] = TP53+/+ HCT116 cells, IR+Gö6976

Sequence of MK-2 (P49137 whole entry): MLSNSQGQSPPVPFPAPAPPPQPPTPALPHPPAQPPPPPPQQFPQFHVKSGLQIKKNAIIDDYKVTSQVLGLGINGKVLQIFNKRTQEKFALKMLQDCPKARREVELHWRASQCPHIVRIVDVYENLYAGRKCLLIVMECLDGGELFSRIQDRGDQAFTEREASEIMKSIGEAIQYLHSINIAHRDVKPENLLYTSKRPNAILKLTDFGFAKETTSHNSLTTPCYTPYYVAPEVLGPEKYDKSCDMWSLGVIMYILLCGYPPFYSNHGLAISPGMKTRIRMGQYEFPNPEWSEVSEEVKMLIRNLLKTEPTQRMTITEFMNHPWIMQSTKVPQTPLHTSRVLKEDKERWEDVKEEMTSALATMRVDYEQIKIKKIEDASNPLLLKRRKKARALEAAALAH

In the case of `Cn1c2ccccc2c2c3c(c4c5ccccc5n(CCC#N)c4c21)CNC3=O` [Gö6976], the apoptosis (human cancer cell lines; [2]) is reported as “moderate, yet significant increase in apoptosis”, the “apoptosis versus single- or no-treatment controls” value (human cancer cell lines; TP53 null or mutant lines, 10 Gy IR+Gö6976, 48 hpIR) is reported as “increases in caspase-2 cleavage and apoptosis” and the “long-term development of non-irradiated treated embryos” value (p53^+/+ embryos; p53+/+) is reported as “developed into normal adults without overt signs of spontaneous tumorigenesis or other pathologies”. For the same molecule, the “toxicity of the dose used (AO reactivity of non-irradiated embryos)” value (p53^+/+ embryos; Gö6976 1 μM, KU55933 10 μM, Chk2 Inhibitor II 10 μM) was “non-toxic”, the MK-2 activity (MK-2; Gö6976 1 μM) was “an increase in MK-2 activity” and the “HSP-27 phosphorylation at serine 82 (MK-2 site)” value (MK-2; Gö6976, increasing concentrations, 10 Gy, 24 hpIR) was “did not block HSP-27 phosphorylation at serine 82”. For the same molecule, the caspase-2 activation (caspase-2; HeLa, 2 Gy, Gö6976 500 nM for 24 hbIR) was “synergistic activation of caspase-2 was observed”, the caspase-2 cleavage (caspase-2; HeLa, 2 or 3.2 Gy, Gö6976 1 μM applied 1 hbIR) was “no detectable cleavage” and the caspase-2 activation (caspase-2; HeLa, 3.2 Gy, Gö6976 1 μM applied 6 hbIR) was “as efficiently as the standard 10 Gy protocol”. The caspase-2 cleavage (caspase-2; HeLa, 10 Gy, 24 hpIR, Gö6976 1 μM applied 1 hbIR) was “readily apparent; also recorded: strong caspase-2 cleavage”, the caspase-2 cleavage (caspase-2; [2]) was “inability to cleave caspase-2” and the “caspase-2 cleavage versus single- or no-treatment controls” value (caspase-2; TP53 null or mutant lines (TP53-/- HCT116, SAOS2, MDA-MB-435, LN-428), 10 Gy IR+Gö6976) was “increases in caspase-2 cleavage”. For the same molecule, the “larvae with T-cell radioresistance suppressed” value ([1]; 15 Gy IR at 5 dpf, Gö6976 for 5 days from 4 dpf, scored 9 dpf, n=26, DMSO: none (n=28)) was 58%, the “adverse effects of systemic treatment” value ([1]; larvae, 5 days exposure) was “without any apparent adverse effects” and the clonogenic radiosensitization (HeLa cells; 2 Gy) was “inability of Gö6976 to significantly radiosensitize the cells”. The “reduction in number of colonies” value (HeLa cells; 3.2 Gy, colonies counted 14 dpIR) was 50%, the “phosphorylated Chk1 at Ser317 (readout for ATR activity)” value (ATR) was “synergistic increases” and the “levels of cleaved caspase-3” value (caspase-3) was “negligible”.
